Experimental findings from US20200061047A1, “NEW USE OF RIFAMYCIN-QUINOLIZIDONE DUAL-ACTION MOLECULE” (TenNor Therapeutics Limited, priority 2017, published 2020) are described below.

In brackets after ≈: the same amount, converted by molar mass. Read-outs that look alike come from different tables or passages of the source.

Type in all cases: cell-based
Assay [1] has as its system Bifidobacterium infantis subsp. Infantis ATCC 15702. As to the kind of experiment: MIC, agar dilution drug sensitivity test. Particulars: ATCC15702, Table 1.
Assay [2] deals with Lactobacillus salivarius JMI 941623. Nature of the assay: MIC, agar dilution drug sensitivity test. Particulars: Ligilactobacillus salivarius, JMI941623, Table 1. (In general: In agar dilution, organisms are placed on agar that contains the substance at set levels.)
Assay [3] concerns Klebsiella oxytoca JMI 933995. As to the kind of experiment: MIC, agar dilution drug sensitivity test. Particulars: JMI933995, Table 1.
Assay [4] relates to Morganella morganii MMX 6123. Nature of the assay: MIC, agar dilution drug sensitivity test. Particulars: MMX6123, Table 1.
Assay [5] relates to Proteus mirabilis JMI 933599. As to the kind of experiment: MIC, agar dilution drug sensitivity test. Particulars: JMI933599, Table 1.
Assay [6] relates to Proteus vulgaris MMX 6454. Nature of the assay: MIC, agar dilution drug sensitivity test. Particulars: MMX6454, Table 1.
The test system of assay [7] is Salmonella spp ATCC 35987. As to the kind of experiment: MIC, agar dilution drug sensitivity test. Particulars: ATCC35987, Table 1. As for the experimental part:
In this embodiment, compound I-rifamycin-quinolizidone dual-action molecule is used in a drug sensitivity test on pathogenic bacteria associated with hepatic encephalopathy, the pathogenic bacteria including the above ammonia-producing bacteria. Except that Haemophilus is tested using the microscale broth dilution method, all the other bacteria are tested using the agar dilution method consistent with that in the Guideline of the Clinical and Laboratory Standards Institute (CLSI; 1-3). All the other drug susceptibility tests are performed under anaerobic conditions except that some selective isolates are tested under both aerobic and anaerobic conditions. Control compounds include metronidazole, rifampicin, clindamycin (under anaerobic conditions) and ciprofloxacin (under aerobic and anaerobic conditions).
The tested clinical isolates may be reference strains obtained from American Type Culture Collection, ATCC, Manassas, Va. After being received, the strains are respectively inoculated on appropriate agar plates and placed under optimized conditions for growth. The growing strains are cloned in the broth containing cryoprotectant to prepare bacterial suspensions, and the bacterial suspensions are subpackaged and then stored in freezing at −80° C. Before test, the frozen bacteria are inoculated into appropriate agar dishes and cultured for growth. Anaerobic bacteria grow for 48 hours at 35° C. in a Bactron II oxygen-free cabinet (Shel Lab, Cornelius, Oreg.) before test. […]
The Minimum Inhibitory Concentration (MIC) is determined using the agar dilution method.
The MIC values of all microorganisms except Haemophilus are determined using the agar dilution method in the CLSI (1-2). […] After culturing, the MIC is determined in accordance with the CLSI guideline (1-2).

Assay [8] concerns Bordetella avium ATCC 6945. As to the kind of experiment: MIC, agar dilution drug sensitivity test. Particulars: Bordetella avium, ATCC6945, Bordetella avium ATCC 6945, read-out: MIC.
Assay [9] has as its system Serratia marcescens ATCC 43862. Nature of the assay: MIC, agar dilution drug sensitivity test. Particulars: Serratia marcescens, ATCC43862, Serratia marcescens ATCC 43862, read-out: MIC.
In assay [10] the test system is Enterobacter aerogenes ATCC 13048. As to the kind of experiment: MIC, agar dilution drug sensitivity test. Particulars: Klebsiella aerogenes, ATCC13048, Enterobacter aerogenes ATCC 13048, read-out: MIC.
The test system of assay [11] is Haemophilus influenzae ATCC 49247. Nature of the assay: MIC, microscale broth dilution drug sensitivity test. The method, then: (§1) In this embodiment, compound I-rifamycin-quinolizidone dual-action molecule is used in a drug sensitivity test on pathogenic bacteria associated with hepatic encephalopathy, the pathogenic bacteria including the above ammonia-producing bacteria. Except that Haemophilus is tested using the microscale broth dilution method, all the other bacteria are tested using the agar dilution method consistent with that in the Guideline of the Clinical and Laboratory Standards Institute (CLSI; 1-3). All the other drug susceptibility tests are performed under anaerobic conditions except that some selective isolates are tested under both aerobic and anaerobic conditions. Control compounds include metronidazole, rifampicin, clindamycin (under anaerobic conditions) and ciprofloxacin (under aerobic and anaerobic conditions). The tested clinical isolates may be reference strains obtained from American Type Culture Collection, ATCC, Manassas, Va. After being received, the strains are respectively inoculated on appropriate agar plates and placed under optimized conditions for growth. The growing strains are cloned in the broth containing cryoprotectant to prepare bacterial suspensions, and the bacterial suspensions are subpackaged and then stored in freezing at −80° C. Before test, the frozen bacteria are inoculated into appropriate agar dishes and cultured for growth. Anaerobic bacteria grow for 48 hours at 35° C. in a Bactron II oxygen-free cabinet (Shel Lab, Cornelius, Oreg.) before test. Haemophilus Test Medium (HTM, Teknova, Hollister, Calif.; Art. No.: 895120) is used to perform drug sensitivity test on Hemophilus using the microscale broth dilution method under aerobic and anaerobic conditions. Preparation and storage of all the above broths are performed in accordance with CLSI (1-3).
(Broth dilution looks for growth in wells or tubes with falling amounts of substance.)

The subject of assay [12] is Haemophilus parainfluenzae ATCC 49247. The description is as above. Particulars: ATCC49247; Haemophilus parainfluenzae ATCC 49247; Aerobic; read-out: MIC. The method, then:
as §1

In assay [13] the test system is Staphylococcus saprophyticus JMI 2016_703. Nature of the assay: MIC, agar dilution drug sensitivity test. Particulars: Aerobic.
Assay [14] deals with Streptococcus parasanguinis MMX 5671. Nature of the assay: MIC, agar dilution drug sensitivity test. Particulars: Streptococcus parasanguinis, MMX5671, Streptococcus parasanguinis MMX 5671, read-out: MIC.
Where [15] appears, read: ATCC49247, Haemophilus influenzae ATCC 49247, Aerobic.
Where [16] appears, read: ATCC49247, Haemophilus influenzae ATCC 49247, Anaerobic.

`O=C(O)c1cn(C2CC2)c2cc(N3CCNCC3)c(F)cc2c1=O` [Ciprofloxacin, ciprofloxacin]: the MIC in [1] was determined as 2 µg/mL (≈ 6.04 µM); in assay [2], 1 µg/mL (≈ 3.02 µM); in assay [3], 0.015 µg/mL (≈ 0.0453 µM); in assay [4], 1 µg/mL (≈ 3.02 µM); in assay [5], 0.0015 µg/mL (≈ 0.00453 µM); in [6], 0.12 µg/mL (≈ 0.362 µM). Further, the MIC in assay [7] was 0.015 µg/mL (≈ 0.0453 µM); in assay [8] (Aerobic), 1 µg/mL (≈ 3.02 µM); in assay [8] (Anaerobic), 2 µg/mL (≈ 6.04 µM); in assay [9] (Aerobic), 0.12 µg/mL (≈ 0.362 µM); in [9] (Anaerobic), 0.25 µg/mL (≈ 0.754 µM); in assay [10] (Aerobic), 0.03 µg/mL (≈ 0.0905 µM). The MIC is 2 µg/mL (≈ 6.04 µM) in [10] (Anaerobic); no more than 0.12 µg/mL in assay [11] (setting [15]); no more than 0.12 µg/mL in assay [11] (setting [16]); no more than 0.12 µg/mL in assay [12]; 1 µg/mL (≈ 3.02 µM) in assay [13]; 1 µg/mL (≈ 3.02 µM) in [14] (Aerobic). Further, in assay [14] (Anaerobic), the MIC worked out at 1 µg/mL (≈ 3.02 µM).
Consider `CO[C@H]1/C=C/O[C@@]2(C)Oc3c(C)c(O)c4c(O)c(c(/C=N/N5CCC(N(C)C6([C@@H]7CCN(c8c(F)cn9c(=O)c(C(=O)O)cc(C%10CC%10)c9c8C)C7)CC6)CC5)c(O)c4c3C2=O)NC(=O)/C(C)=C\C=C\[C@H](C)[C@H](O)[C@@H](C)[C@@H](O)[C@@H](C)[C@H](OC(C)=O)[C@@H]1C` [Compound I, (R)-3-[(4-{1-[1-(3-carboxy-1-cyclopropyl-7-fluoro-9-methyl-4-oxo-4H-quinolizine-8-yl)-pyrrolidin-3-yl-cyclopropyl]-methylamino}-piperidin-1-ylimino)-methylene]-rifamycin SV], for which the MIC in assay [1] is 2 µg/mL (≈ 1.66 µM); in [2] it was 0.5 µg/mL (≈ 0.415 µM); in [3], 4 µg/mL (≈ 3.32 µM); in assay [4], 16 µg/mL (≈ 13.3 µM); in assay [5], 8 µg/mL (≈ 6.64 µM); in assay [6] it was 2 µg/mL (≈ 1.66 µM). Moreover, the MIC in assay [7] was 0.06 µg/mL (≈ 0.0498 µM); in assay [8] (Aerobic) it was 4 µg/mL (≈ 3.32 µM); in assay [8] (Anaerobic), greater than 64 µg/mL; in assay [9] (Aerobic) it was 4 µg/mL (≈ 3.32 µM); in [9] (Anaerobic) it was greater than 64 µg/mL; in assay [10] (Aerobic), 1 µg/mL (≈ 0.83 µM). In addition, the MIC was greater than 64 µg/mL in assay [10] (Anaerobic); 0.12 µg/mL (≈ 0.0996 µM) in assay [11] (setting [15]); 0.12 µg/mL (≈ 0.0996 µM) in [11] (setting [16]); 0.25 µg/mL (≈ 0.207 µM) in assay [12]; 0.5 µg/mL (≈ 0.415 µM) in assay [13]; 0.25 µg/mL (≈ 0.207 µM) in assay [14] (Aerobic). Further, in [14] (Anaerobic), the MIC amounted to 8 µg/mL (≈ 6.64 µM).
